Source: ChEMBL document CHEMBL2417441, “Synthesis, structure, and cytotoxicity studies of some fungal isochromanes” (J Nat Prod, 2013)
Calls of active or inactive are those of the source. The calls are words filed in the database; no cut-off is given here.

Legend:
[1] = tested on: HCT-116; assay: Cytotoxicity against human HCT116 cells after 72 hrs by WST-8 assay; assay type: functional, cell-based; conditions: HCT-116, 72 h
[2] = tested on: HCT-116; assay: Induction of apoptosis in human HCT116 cells assessed as DNA fragmentation at 5 uM after 72 hrs by TUNEL assay; assay type: functional, cell-based
[3] = tested on: HCT-116; assay: Induction of apoptosis in human HCT116 cells at 5 uM after 72 hrs by fluorescence microscopic analysis relative to etoposide; assay type: functional

| Compound | IC50 [1] [µM] | Activity [2] | fold change (FC) [3] |
| --- | --- | --- | --- |
| CO[C@H]1O[C@H](C)Cc2ccc3c(c21)OC(=C(C)C)C3=O [USTUSORANE C] | 5.9 |  |  |
| CO[C@H]1O[C@H](C)Cc2ccc3c(c21)O[C@@H](C(C)C)C3=O (relative stereo) | > 100 |  |  |
| CO[C@H]1O[C@H](C)Cc2ccc3c(c21)O[C@H](C(C)C)C3=O | > 100 |  |  |
| CC(C)[C@H]1Oc2c(ccc3c2[C@@H](O)O[C@H](C)C3)C1=O | > 100 |  |  |
| CC(C)=C1Oc2c(ccc3c2C(=O)O[C@H](C)C3)C1=O | 9.8 |  |  |
| CC[C@@]1(O)C(=O)OCc2c1cc1n(c2=O)Cc2cc3ccccc3nc2-1 [CAMPTOTHECIN] | 0.016 |  |  |
| CC(C)=C1Oc2c(ccc3c2[C@@H](O)O[C@H](C)C3)C1=O [(+)-PSEUDODEFLECTUSIN] | 5 | Active | 2 |
| CC(C)[C@@H]1Oc2c(ccc3c2[C@@H](O)O[C@H](C)C3)C1=O | > 100 |  |  |
| C[C@@H](O)Cc1cccc(O)c1CO | > 100 |  |  |
